Entries after “also recorded” stand apart in the source; their conditions may differ.
Key:
antenna of FAW males = test: GC-EAD electrophysiology of female pheromone gland extract on male antenna; parameters: species or system Spodoptera frugiperda; conditions: 1 μl female pheromone gland extract
Description: Electrophysiology: The sex pheromone gland of ten 3-4-day old FAW females was dissected and placed in a glass insert containing 30 μl hexane (SupraSolv®; MilliporeSigma, Burlington, Mass., United States of America). After 10 min, the hexane extract was transferred to a second insert and concentrated down to 10 μl under a gentle flow of nitrogen. A gas chromatograph coupled to an electroantennogram detector (GC-EAD) was used to identify biologically active compounds that are perceived by the antenna of FAW males, since the antenna is the main olfactory organ of insects. The GC separates chemical mixes into individual compounds and directs them to the insect antenna, which is connected to an amplifier, the EAD. In parallel to the GC, the electrophysiological response of the antenna is recorded to identify the active compounds. An aliquot of 1 μl of the pheromone gland extract was injected in the GC-EAD where a male FAW antenna was mounted. Clean hexane that was handled in the same manner without glands was used as control.

FAW males = test: No-choice linear olfactometer behavioral assay; type: in vivo, Spodoptera frugiperda
Description: Behavioral Assay: A no-choice linear olfactometer assay was used to test the behavior of FAW males to different formulations. The olfactometer consists of a linear Plexiglas® tube (n=6 cm i.d., length=145 cm) that was connected to an air pump that generated an internal airflow speed of 0.1 m/s. A short Plexiglas® chamber filled with activated charcoal was connected to the opposite end of the olfactometer to filter the inward air. […] An aliquot of […] was added to a piece of filter paper and solvent was left to evaporate for 30 min at room temperature. Filter papers were introduced to the olfactometer through an opening (0=2 cm) on the top of the olfactometer, 4 cm away from the charcoal filter. Filter papers were tested only once. Moths were tested for 5 minutes and the sequence of their behavioral response was recorded as: activation (wing fanning and start moving upwind), reaching the half-way point of the olfactometer (HW), close approach to the odor source (CA), and source contact (contact). The experiment was conducted 4-7 hours into the scotophase.
The tested formulations were: […]
(§1) Statistical analysis: All statistical analyses were performed in R (version 3.5.1). Behavioral responses of male FAW to formulations in the olfactometer were analyzed by binomial generalized linear model. Numbers of male FAW catches in the same day were combined per treatment and analyzed by Poisson generalized linear model (GLM). Treatments that had no catches were not included in the analyses.

male FAW [1] = test: Field assays, Hartstack traps in cotton field, 2-component pheromone mix with nonanal; type: in vivo, Spodoptera frugiperda
Description: Field Assays: Formulations were tested under field conditions. Z9-14:OAc and Z7-12:OAc were diluted in hexane and 100 μL of the solution containing 100 μg and 0.58 μg of the respective compounds was loaded to a rubber septum (11 mm; Wheaton, DWK Life Sciences, Millville, N.J., United States of America). The septum was left inside a fume hood for 15 hr for the solvent to evaporate and then tested in field assays. Nonanal was diluted in paraffin oil and 100 μL of the solution was transferred to a vial dispenser. The solution contained either 0.1 μg or 1 μg, which corresponded to 0.1% and 1% of the amount of Z9-14:OAc. This dispenser constituted a 2 ml borosilicate vial covered with aluminum foil and contained 50 mg of deactivated glass wool. The vial was loaded with a nonanal solution and capped. […] A straightened metal paper clip pierced through the small cup of a pheromone-loaded rubber septum and was tied around the neck of a nonanal-loaded vial. This set was held by a steel alligator clip installed inside a Hartstack trap. We tested the attraction of male FAW to the following treatments: • Control: clean hexane loaded into a rubber septum and clean paraffin oil in a, vial dispenser • Pheromone mix: 100 μj of Z9-14:OAc and 0.58 μg of Z7-12:OAc in rubber septum and clean paraffin oil in vial dispenser • Pheromone 4-0.1% Nonanal: Pheromone mix in rubber septum and 0.1 μg of nonanal in vial dispenser • Pheromone+1% Nonanal: Pheromone mix in rubber septum and 1 μg of nonanal in vial dispenser
The Hartstack trap consisted of a conical body made of metal mesh with a removal top (H: 15 cm, ø=14 cm) in which males were trapped. Traps stood over the canopy of crops on rebars (L: 1.5 m) that were fixed to the ground. Traps were set for one week in a cotton field along the crop row, 15 m apart. Each experimental block consisted of 4 traps 15 m from each other. The next block was set 15 m from the first block and parallel to it. Each treatment was replicated once within a block and assigned randomly to trap positions. The number of trapped male FAW moths and other species were counted daily and traps were rotated.
A second study repeated the same procedure described above but increased the amount of Z9-14:OAc and Z7-12:OAc in the mix to 1000 μg and 5.8 μg, respectively, and nonanal to 10, 20 and 40 μg. The attraction of male FAW was tested to the following treatments: • Control: clean hexane loaded into a rubber septum and clean paraffin oil loaded into a vial dispenser • Pheromone mix: 1000 μg of Z9-14:OAc and 5.8 μg of Z7-12:OAc in rubber septum and clean paraffin oil in vial dispenser (no nonanal). • Pheromone 4-1% Nonanal: Pheromone mix in rubber septum and 10 μg of nonanal in vial dispenser. • Pheromone+2% Nonanal: Pheromone mix in rubber septum and 20 μg of nonanal in vial dispenser. • Pheromone+4% Nonanal: Pheromone mix in rubber septum and 40 μg of nonanal in vial dispenser.
as §1

male FAW [2] = test: Field test with commercial lures plus nonanal, Hartstack traps in sorghum crop; type: in vivo, Spodoptera frugiperda
Description: Field test with commercial formulation: The effect of adding nonanal to commercial formulations was tested in a sorghum crop for five days. Lures were purchased from two commercial suppliers, referred to herein as “Commercial Supplier A” (L105A from Seemly Biologicals Inc., Billings, Mont., United States of America) and “Commercial Supplier B” (FAW 3143 from Trécé, Adair, Okla., United States of America). These lures were formulated by the respective companies in rubber septa. Nonanal was formulated in the same way as described above and a straightened metal paper clip held together both the nonanal-loaded vial and the commercial lure. This set was installed inside a Hartstack trap and traps were positioned in the same manner described above. The attraction of male FAW to the following treatments was tested: • Commercial Supplier B lure combined with clean paraffin oil in vial dispenser (no nonanal). • Commercial. Supplier B lure combined with 20 μg of nonanal in vial dispenser. • Commercial Supplier A lure combined with clean paraffin oil in vial dispenser (no nonanal). • Commercial Supplier A lure combined with 20 μg of nonanal in vial dispenser.
A second study was conducted in the same crop over a second five-day period, aimed to investigate different doses of nominal in combination with Commercial Supplier A lures. Using the same procedure described above, the attraction of male FAW was tested to the following treatments: • Commercial. Supplier A lure combined with clean paraffin oil in vial dispenser (no nonanal). • Commercial Supplier A lure combined with 10 μg of nonanal in vial dispenser. • Commercial Supplier A lure combined with 20 μg of nonanal in vial dispenser. • Commercial Supplier A lure combined with 40 μg of nonanal in vial dispenser. • Commercial Supplier A lure combined with 80 μg of nonanal in vial dispenser.
as §1

[3] = nonanal at all doses (0.05, 0.1, 1% relative to 100 ng Z9-14:OAc) added to 2-component formulation, N=15

CCCCCCCCC=O [nonanal]
antennal (EAD) response (antenna of FAW males): active; also recorded: robust antennal responses
males that reached the pheromone source (FAW males; 1% nonanal (1 ng) added to 2-component formulation (Formulation #4), N=15): 100%
effect on attraction / pheromone-triggered response of males (FAW males; nonanal 0.05, 0.1, 1% added to 2-component formulation, olfactometer): enhanced the attraction of male FAW
males activated (FAW males; [3]): 100%
males that reached the pheromone source (FAW males; [3]): more than 66%
trap catch (male FAW [1]; 0.1% nonanal (0.1 μg) added to 100 μg Z9-14:OAc + 0.58 μg Z7-12:OAc, cotton field): intermediate trap catch between the pheromone mix alone and with the addition of 1% nonanal
improvement of male catches compared to the pheromone mix alone (male FAW [1]; 1% nonanal (1 μg) added to 100 μg Z9-14:OAc + 0.58 μg Z7-12:OAc, cotton field): 155%
number of males caught per day (male FAW [1]; 1% nonanal added to 100 μg Z9-14:OAc + 0.58 μg Z7-12:OAc, cotton field, three traps, six days): highest number of males caught
nonanal percentage (compared to Z9-14:OAc) that rendered the highest number of trap catches in the field (male FAW [1]; field assays): 1 % (weight/weight)
numbers of male FAW in traps (male FAW [1]; nonanal 0.1 and 1 μg added to 100 μg Z9-14:OAc + 0.58 μg Z7-12:OAc, cotton field): significantly increased the numbers of male FAW in traps
male catches per day, more than the pheromone alone (male FAW [1]; second assay: 1% nonanal added to 1 mg Z9-14:OAc + 5 μg Z7-12:OAc, cotton field): 100%
number of males caught per day (male FAW [1]; second assay: 1% nonanal added to pheromone mix (1 mg Z9-14:OAc), cotton field, nine days): highest number of male catches per day; also recorded: highest number of males caught
number of males caught (male FAW [1]; second assay: 2% nonanal added to pheromone mix (1 mg Z9-14:OAc), cotton field): decreased the number of males caught and was not significantly different from the pheromone formulation alone
number of males caught (male FAW [1]; second assay: 4% nonanal added to pheromone mix (1 mg Z9-14:OAc), cotton field): decreased the number of males caught and was not significantly different from the pheromone formulation alone
trap catch (male FAW [1]; second assay: nonanal alone (1% and 4%), no pheromone mix, cotton field): did not yield any catch; also recorded: did not catch any males
increase of trap catches compared to commercial lure alone (male FAW [2]; 20 μg (1%) nonanal added to Commercial Supplier A lure, sorghum field): 46.5%
increase of trap catches compared to commercial lure alone (male FAW [2]; 20 μg (1%) nonanal added to Commercial Supplier B lure, sorghum field): 53%
number of males caught per day (male FAW [2]; 20 μg nonanal added to Commercial Supplier A and B lures, sorghum field, four traps per treatment): significantly increased the number of males caught per day compared to the commercial lures alone
number of males caught per day (male FAW [2]; second study (FIG. 6): nonanal added to Commercial Supplier A (Scentry) lure, sorghum field, five days): significantly increased the number of males caught compared to the commercial lures alone
number of males caught compared to the commercial lure alone (male FAW [2]; second study: 80 μg (4%) nonanal added to Commercial Supplier A lure, sorghum field): 52.4%
trap catches (male FAW [2]; second study: 1% nonanal added to Commercial Supplier A lure): only slightly increased the trap catches
trap catches (male FAW [2]; second study: 2% nonanal added to Commercial Supplier A lure): only slightly increased the trap catches
trap catch (male FAW [2]; second study: 8% nonanal added to Commercial Supplier A lure): decreased trap catch
